# Data published in US5795907A, “Gastin and CCK receptor ligands” (James Black Foundation Limited, priority 1994, dated 1998).
# Legend:
# [1] = biological target: T1, CCKB receptor (Mus musculus, UniProt P56481); assay: CCKB receptor radioligand binding assay in mouse cortical membranes ([125I]-CCK8S); conditions: [125I]-CCK8S 200 pM, 150 min at 21±3°; for Ki: read-out: CCKB pKi (converted)
# T1 construct: The cortex was dissected, weighed and homogenised in 40ml ice-cold buffer; tissue Charles River (supplier of the CD1 mice); host or cells: cerebral cortex membranes of male CD1 mice
# T1 sequence (P56481 1-453): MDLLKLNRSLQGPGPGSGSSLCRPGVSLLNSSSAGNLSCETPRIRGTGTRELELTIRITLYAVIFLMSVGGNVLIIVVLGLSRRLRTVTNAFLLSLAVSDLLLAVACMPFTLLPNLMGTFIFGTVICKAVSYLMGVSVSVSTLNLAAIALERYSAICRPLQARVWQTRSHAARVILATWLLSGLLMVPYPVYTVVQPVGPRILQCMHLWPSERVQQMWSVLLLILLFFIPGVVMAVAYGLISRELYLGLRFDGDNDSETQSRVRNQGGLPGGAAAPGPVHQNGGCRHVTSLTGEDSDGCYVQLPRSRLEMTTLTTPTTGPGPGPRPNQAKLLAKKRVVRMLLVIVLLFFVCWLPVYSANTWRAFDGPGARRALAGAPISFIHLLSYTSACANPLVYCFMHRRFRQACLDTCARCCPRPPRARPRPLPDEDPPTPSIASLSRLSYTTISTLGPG
# Procedure, shortened: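 This was competition binding with tracer [125I]-CCK8S (200 pM solution added), run for 150 min at 21±3° on male CD1 mouse cortex membranes in pH 7.2 HEPES buffer with bacitracin. Filtration then gamma counting gave bound radioactivity. L-365,260 set the non-specific level.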
# [2] = biological target: T2, gastrin (Rattus norvegicus, UniProt P30553); assay: gastrin antagonist activity in an immature rat stomach assay (pentagastrin-stimulated acid secretion); conditions: cumulative pentagastrin dose-response curves after 60 min with drug; for Kb: read-out: Gastrin pKB (converted)
# T2 construct: The stomach was lowered into a jacketed organ bath containing 40 ml of buffered solution; from tissue; host or cells: isolated perfused whole stomach of immature rats (ca. 21 days old)
# T2 sequence (P30553 1-452): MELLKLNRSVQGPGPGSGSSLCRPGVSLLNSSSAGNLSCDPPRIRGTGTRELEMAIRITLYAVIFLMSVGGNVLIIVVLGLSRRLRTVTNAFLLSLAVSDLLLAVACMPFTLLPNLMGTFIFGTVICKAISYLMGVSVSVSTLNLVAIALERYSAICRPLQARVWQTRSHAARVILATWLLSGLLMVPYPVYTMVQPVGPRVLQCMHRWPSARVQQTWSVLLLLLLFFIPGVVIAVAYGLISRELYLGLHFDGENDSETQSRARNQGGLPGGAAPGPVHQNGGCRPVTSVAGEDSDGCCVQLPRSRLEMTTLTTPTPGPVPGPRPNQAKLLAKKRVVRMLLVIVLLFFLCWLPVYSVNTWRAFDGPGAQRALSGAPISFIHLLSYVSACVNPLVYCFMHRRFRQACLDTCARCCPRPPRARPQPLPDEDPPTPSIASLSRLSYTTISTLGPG
# Procedure, shortened: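 Isolated lumen-perfused immature rat stomach (33-50 g, ca. 21 days) in 37° organ bath with 3×10^-8 M 5-methylfurmethide; acid secretion read by pH electrode in perfusate. Compound added to serosal bath after 120 min stabilisation; cumulative pentagastrin dose-response curves begun 60 min later and analysed by the Black et al. method.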
# [3] = biological target: T3, CCKA (Cavia porcellus, UniProt Q63931); assay: CCKA radioligand binding assay in guinea-pig pancreas membranes ([125I]-CCK8(S)); conditions: PD134,308 present, 150 minutes at 21±3°; for Ki: read-out: CCKA pKi (converted)
# T3 construct: The pancreatata were homogenised in 40 ml ice-cold HEPES buffer using a polytron; from tissue; host or cells: pancreas membranes of male Dunkin Hartley guinea-pigs
# T3 sequence (Q63931 1-430): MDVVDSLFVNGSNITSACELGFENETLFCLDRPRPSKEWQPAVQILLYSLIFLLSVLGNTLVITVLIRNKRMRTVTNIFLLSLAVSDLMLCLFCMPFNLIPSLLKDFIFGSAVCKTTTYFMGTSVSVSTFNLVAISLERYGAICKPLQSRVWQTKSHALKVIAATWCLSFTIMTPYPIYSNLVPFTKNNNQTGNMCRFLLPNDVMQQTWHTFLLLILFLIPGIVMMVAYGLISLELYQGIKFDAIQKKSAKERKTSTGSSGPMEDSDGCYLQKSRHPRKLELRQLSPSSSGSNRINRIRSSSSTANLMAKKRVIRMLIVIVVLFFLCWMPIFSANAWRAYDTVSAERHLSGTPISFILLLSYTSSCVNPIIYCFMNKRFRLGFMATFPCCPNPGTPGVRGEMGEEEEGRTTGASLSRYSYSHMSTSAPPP
# Procedure, shortened: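 Competition for [125I]-CCK8(S) (added as […] solution) ran for 150 min at 21±3° in HEPES pH 7.2. Membranes came from male guinea-pig pancreas at 1 mg/ml original wet weight, with 0.375 μM PD134,308 in the suspension. Filter-bound counts were gamma-counted; 100 nM L-364,718 (added solution) defined non-specific binding.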
Ki [1] [nM],Kb [2] [nM],Ki [3] [nM],CCKB pKi [1],Gastrin pKB [2],CCKA pKi [3],Compound
5.01,3.16,158,–,–,–,"O=C(NCC12CC3CC(CC(C3)C1)C2)c1cc2cc[nH]c2cc1C(=O)N[C@@H](Cc1ccccc1)C(=O)Nc1cc(-c2nn[nH]n2)cc(-c2nn[nH]n2)c1 [Example 105, 6-(1S-(3,5-ditetrazolylphenylaminocarbonyl)-2-phenylethylaminocarbonyl)-5-(1-adamantanemethylaminocarbonyl)-indole]"
–,–,–,6.8,7.3,6.3,5-(1S-(3-methoxycarbonyl-5-carboxy-phenylaminocarbonyl)-2-phenylethylaminocarbonyl)-6-(1-adamantanemethylaminocarbonyl)-indole and regioisomer with substituents at positions 5 and 6 reversed [Example 40]
15.8,6.31,3980,–,–,–,"O=C(O)c1cc(NC(=O)[C@H](Cc2ccccc2)NC(=O)c2cc3[nH]cnc3cc2C(=O)NCC2CCCCCC2)cc(C(=O)O)c1 [Example 62, 5-(1S-(3,5-dicarboxyphenylaminocarbonyl)-2-phenylethylaminocarbonyl)-6-(1-cycloheptanemethylaminocarbonyl)-benzimidazole]"
3160,1000,12600,–,–,–,"COC(=O)[C@H](C)NC(=O)c1cc2ccccc2cc1C(=O)NCC12CC3CC(CC(C3)C1)C2 [Example 2, 2-(1S-methoxycarbonyl-ethylaminocarbonyl)-3-(1-adamantanemethylaminocarbonyl)-naphthalene]"
25.1,31.6,1260,–,–,–,"O=C(O)c1ccc(Cl)c(NC(=O)[C@H](Cc2ccccc2)NC(=O)c2cc3[nH]cnc3cc2C(=O)NCC23CC4CC(CC(C4)C2)C3)c1 [Example 127, 5-(1S-(^2-chloro-5-carboxyphenylaminocarbonyl)-2-phenylethylaminocarbonyl)-6-(1-adamantanemethylaminocarbonyl)-benzimidazole]"
251,100,> 10000,–,–,–,"O=C(O)c1cc(NC(=O)[C@@H]2CCCN2C(=O)c2cc3[nH]cnc3cc2C(=O)NCC23CC4CC(CC(C4)C2)C3)cc(C(=O)O)c1 [Example 77, 5-(2S-(3,5-dicarboxyphenylaminocarbonyl)-pyrrolidinocarbonyl)-6-(1-adamantanemethylaminocarbonyl)-benzimidazole]"
7.94,15.8,7940,–,–,–,"O=C(O)c1cc(NC(=O)[C@H](Cc2ccccc2F)NC(=O)c2cc3[nH]cnc3cc2C(=O)NCC2CCCCCC2)cc(C(=O)O)c1 [Example 70, 5-(1S-(3,5-dicarboxyphenylaminocarbonyl)-2-(2-fluorophenyl)ethylaminocarbonyl)-6-(cycloheptanemethylaminocarbonyl)-benzimidazole]"
31.6,20,–,–,–,5.0,"CN(C(=O)c1cc2[nH]cnc2cc1C(=O)NCC12CC3CC(CC(C3)C1)C2)[C@@H](Cc1ccccc1)C(=O)Nc1cc(C(=O)O)cc(C(=O)O)c1 [Example 86, 5-(1S-(3,5-dicarboxyphenylaminocarbonyl)-2-30 phenylethyl-(N-methylamino)-carbonyl)-6-(1-adamantanemethylaminocarbonyl)-benzimidazole]"
–,–,–,6.0,6.3,5.6,"C[C@H](NC(=O)c1cc2[nH]cnc2cc1C(=O)NCC1CCCCCC1)C(=O)Nc1cc(C(=O)O)cc(C(=O)O)c1 [Example 72, 5-(1S-(3,5-dicarboxyphenylaminocarbonyl)-ethylaminocarbonyl)-6-(cycloheptanemethylaminocarbonyl)-benzimidazole]"
–,–,–,8.5,9.0,5.6,"3-(1S-(3,5-dicarboxyphenylaminocarbonyl)-2-phenyl ethylaminocarbonyl)-2-(1-adamantanemethylaminocarbonyl)-5-aminonaphthalene [Example 116]"
398,200,3160,–,–,–,"O=C(NCC12CC3CC(CC(C3)C1)C2)c1cc2ccccc2cc1C(=O)N1CCC[C@@H]1C(=O)O [Example 3, 3-(2R-carboxypyrrolidino-carbonyl)-2-(1-adamantanemethylaminocarbonyl)-naphthalene]"
501,158,2000,–,–,–,"O=C(NCC12CC3CC(CC(C3)C1)C2)c1cc2nc[nH]c2cc1C(=O)N[C@@H](Cc1ccccc1)C(=O)NCc1ccc(F)cc1 [Example 67, 5-(1S-(4-fluorophenylmethylaminocarbonyl)-2-phenylethylaminocarbonyl)-6-(1-adamantanemethylaminocarbonyl)-benzimidazole]"
5.01,2.51,2510,–,–,–,"O=C(O)c1cc(NC(=O)[C@H](Cc2ccccc2F)NC(=O)c2cc3[nH]ccc3cc2C(=O)NCC23CC4CC(CC(C4)C2)C3)cc(C(=O)O)c1 [Example 88, 6-(1S-(3,5-dicarboxyphenylaminocarbonyl)-2-(2-25 fluorophenyl)ethylaminocarbonyl)-5-(1-adamantaneinetnyl-aminocarbonyl)-indole]"
3.98,2,6310,–,–,–,"O=C(O)c1cc(NC(=O)[C@@H](Cc2ccccc2)NC(=O)c2cc3[nH]cnc3cc2C(=O)NCC23CC4CC(CC(C4)C2)C3)cc(C(=O)O)c1 [Example 61, 5-(1R-(3,5-dicarboxyphenylaminocarbonyl)-2-phenylethylaminocarbonyl)-6-(1-adamantanemethylaminocarbonyl)-benzimidazole]"
631,100,3160,–,–,–,"C[C@H](NC(=O)c1cc2[nH]ccc2cc1C(=O)NCC12CC3CC(CC(C3)C1)C2)C(=O)Nc1cc(C(=O)O)cc(C(=O)O)c1 [Example 48, 6-(1S-(3,5-dicarboxyphenylaminocarbonyl)-ethylaminocarbonyl)-5-(1-adamantanemethylaminocarbonyl)-indole]"

Compound,Ki [1] [nM],Kb [2] [nM],Ki [3] [nM],CCKB pKi [1],Gastrin pKB [2],CCKA pKi [3]
"Cn1cnc2cc(C(=O)N[C@@H](Cc3ccccc3)C(=O)Nc3cc(C(=O)O)cc(C(=O)O)c3)c(C(=O)NCC34CC5CC(CC(C5)C3)C4)cc21 [Example 74, N-methyl-5-(1S-(3,5-dicarboxyphenylaminocarbonyl)-2-phenylethylaminocarbonyl)-6-(1-adamantanemethylaminocarbonyl)-benzimidazole]",–,–,–,7.6,9.0,5.3
"O=C(O)c1cc(NC(=O)[C@H](Cc2ccccc2)NC(=O)c2cc3ccsc3cc2C(=O)NCC23CC4CC(CC(C4)C2)C3)cc(C(=O)O)c1 [Example 125, 5-(1S-(3,5-dicarboxyphenylaminocarbonyl)-2-phenylethylaminocarbonyl)-6-(1-adamantanemethylaminocarbonyl)-benzothiophene]",–,–,–,8.9,9.4,5.7
